# Assay results from US20220008495A1, “APPLICATION OF PHLEGMYHEATCLEAR IN PREPARATION OF DRUG FOR TREATMENT OF ACUTE EXACERBATION OF CHRONIC OBSTRUCTIVE PULMONARY DISEASE” (SHANGHAI KAIBAO PHARMACEUTICAL CO., LTD., priority 2020, published 2022).
# Marks after values point to notes of the source that are not given here.
# Legend:
# Format in all cases: in vivo, SD rats
# [1] = system: model of rats with acute exacerbation of chronic obstructive pulmonary disease; test: Lung functions (animal pulmonary function test system); conditions: dexamethasone 0.23 mg/kg/d gavage 7 days; x±SD, n=6-12
# Description: (§1) The rats were allowed to acclimate to their surroundings for 7 days since purchased from the specific company. The rats were fed sterilized feed and allowed to free access to sterilized water. Operators regularly checked purification and water and electricity operating system to keep a quite environment. 14 rats were selected to fall into a blank control group, and the remaining rats were subjected to cigarette smoking and repeatedly infected with Klebsiella pneumoniae (KP) to establish chronic obstructive pulmonary disease (COPD) stable-phase model of rats. The method comprises the steps of: light a cigarette, making smoke concentration reach 3000±500 ppm, twice a day. The rats took a rest for at least 3 hours between the two times of being exposed to cigarette smoking, lasting for a total of 12 weeks. From 1 to 8 weeks, model of rats were instilled KP suspension (6×10^8 CFU/ml) 0.1 ml through the nasal cavity every 5 days. Instillation via the nasal cavity: a sterilized 1 ml syringe was used to draw 0.1 ml of KP suspension; the KP suspension was instilled into the rats when the rats were breathing in, and the instillation process was done in either the left and right nostrils in an alternating way. Lipopolysaccharide (LPS) 2 mg/kg was instilled into the trachea on the first day of the 13th week to establish model of rats with acute exacerbation of chronic obstructive pulmonary disease. After successful modeling, the model of rats were randomly divided into five groups, including a model control group, a high dose of phlegmyheatclear group, a middle dose of phlegmyheatclear group, a low dose of phlegmyheatclear group, and a dexamethasone group, with 12 rats in each group.
# The administration was started from the 2nd day of the 13th week. The same volume of purified water (10 ml/kg/d) was administered intragastrically to rats in the blank control group and the model control group, and the other groups were received high dose of phlegmyheatclear, middle dose of phlegmyheatclear, low dose of phlegmyheatclear, and dexamethasone once a day. All the rats were fasted within 12 hours before sampling of blood, however, the rats were allowed to free access to water. Blood samples were collected from caudal vein for CBC. Then the rats were anesthetized by intraperitoneal injection of 10% 1.0 ml/100 g urethane. Exposed tracheal intubation was performed. Changes of the pulmonary functions of the rats were detected by using an animal pulmonary function test system (PET). Blood was collected from the abdominal aorta, and the collected blood was placed for 2 hours and centrifuged to obtain the blood serum to detect the levels of inflammatory factors IL-6, IL-10, CRP and SAA. The rat trachea and the whole lung were taken out by thoracotomy. The right main bronchus was ligated, and the left bronchoalveolar lavage fluid (BALF) was drawn out to detect the level of inflammatory factor TNF-α; the left lung was perfused with 4% paraformaldehyde for 1 hour, and the left lung was directly fixed in the 4% paraformaldehyde for pathological examination.
# Before sampling, the rats were anesthetized by intraperitoneal injection of 10% 1.0 ml/100 g urethane. Exposed tracheal intubation was performed. Relevant parameters of each rat were detected by using an animal pulmonary function test system (PET), wherein the parameters include forced vital capacity (FVC), forced expiratory volume at 0.1 s (FEV0.1), forced expiratory volume at 0.3 s (FEV0.3), maximum expiratory flow rate (PEF), mid-maximum expiratory flow (MMEF), functional residual capacity (FRC), and other parameters, changes in lung function (x±SD) of rats in each group are shown in Table 3.
# [2] = system: model of rats with acute exacerbation of chronic obstructive pulmonary disease; test: Complete blood count (peripheral blood inflammatory cells); conditions: dexamethasone 0.23 mg/kg/d gavage 7 days, x±SD
# Description: as §1
# The administration was started from the 2nd day of the 13th week. The same volume of purified water (10 ml/kg/d) was administered intragastrically to rats in the blank control group and the model control group, and the other groups were received high dose of phlegmyheatclear, middle dose of phlegmyheatclear, low dose of phlegmyheatclear, and dexamethasone once a day. All the rats were fasted within 12 hours before sampling of blood, however, the rats were allowed to free access to water. Blood samples were collected from caudal vein for CBC. Then the rats were anesthetized by intraperitoneal injection of 10% 1.0 ml/100 g urethane. Exposed tracheal intubation was performed. Changes of the pulmonary functions of the rats were detected by using an animal pulmonary function test system (PET). […]
# Blood samples were collected from caudal vein for CBC, the following items were counted: the white blood cell count (WBC), the ratio of neutrophils (NEU %), the percentage of lymphocytes (% LYMPH) and the percentage of mononuclear cells (% MONO).
# [3] = system: model of rats with acute exacerbation of chronic obstructive pulmonary disease; test: Determination of IL-6, IL-10 in serum and TNF-α in alveolar lavage fluid (ELISA); conditions: dexamethasone 0.23 mg/kg/d gavage 7 days, n=10-12
# Description: The administration was started from the 2nd day of the 13th week. The same volume of purified water (10 ml/kg/d) was administered intragastrically to rats in the blank control group and the model control group, and the other groups were received high dose of phlegmyheatclear, middle dose of phlegmyheatclear, low dose of phlegmyheatclear, and dexamethasone once a day. All the rats were fasted within 12 hours before sampling of blood, however, the rats were allowed to free access to water. […] Then the rats were anesthetized by intraperitoneal injection of 10% 1.0 ml/100 g urethane. Exposed tracheal intubation was performed. […]
# [4] = system: model of rats with acute exacerbation of chronic obstructive pulmonary disease; test: Determination of serum CRP and SAA levels (ELISA); conditions: dexamethasone 0.23 mg/kg/d gavage 7 days, x±SD, n=9-12
# Description: as §1, with “Lipopolysaccharide (LPS) 2 mg/kg was instilled into the trachea on the first day of the 13th week to establish model of rats with acute exacerbation of chronic obstructive pulmonary disease. After successful modeling, the model of rats were randomly divided into five groups, including a model control group, a high dose of phlegmyheatclear group, a middle dose of phlegmyheatclear group, a low dose of phlegmyheatclear group, and a dexamethasone group, with 12 rats in each group.” left out
# The administration was started from the 2nd day of the 13th week. […] Changes of the pulmonary functions of the rats were detected by using an animal pulmonary function test system (PET). […]
# [5] = system: model of rats with acute exacerbation of chronic obstructive pulmonary disease; test: Pathological examination of lung tissue (HE staining; MLI, MAN, bronchial wall thickness); conditions: dexamethasone 0.23 mg/kg/d gavage 7 days; x±SD, n=8
# Description: The administration was started from the 2nd day of the 13th week. The same volume of purified water (10 ml/kg/d) was administered intragastrically to rats in the blank control group and the model control group, and the other groups were received high dose of phlegmyheatclear, middle dose of phlegmyheatclear, low dose of phlegmyheatclear, and dexamethasone once a day. All the rats were fasted within 12 hours before sampling of blood, however, the rats were allowed to free access to water. […] Then the rats were anesthetized by intraperitoneal injection of 10% 1.0 ml/100 g urethane. Exposed tracheal intubation was performed. […] The rat trachea and the whole lung were taken out by thoracotomy. […]
structure (smiles),measurement,setting,value
"C[C@@H]1C[C@H]2[C@@H]3CCC4=CC(=O)C=C[C@]4(C)[C@@]3(F)[C@@H](O)C[C@]2(C)[C@@]1(O)C(=O)CO [Dexamethasone, dexamethasone]",FEV0.1 (forced expiratory volume at 0.1 s),[1],5.31 ± 2.90 mL
same,FEV0.3 (forced expiratory volume at 0.3 s),[1],15.06 ± 2.84 ^b mL
same,FRC (functional residual capacity),[1],4.37 ± 1.48 mL
same,FVC (forced vital capacity),[1],16.33 ± 2.01^bb mL
same,MMEF (mid-maximum expiratory flow),[1],78.6 ± 29.1 mL/s
same,PEF (maximum expiratory flow rate),[1],81.57 ± 29.43 mL/S
same,LYM (percentage of lymphocytes),[2],82.15 ± 15.32%
same,MONO (percentage of mononuclear cells),[2],0.61 ± 0.25^b %
same,NEU (ratio of neutrophils),[2],16.57 ± 14.99%
same,WBC (white blood cell count),[2],3.80 ± 1.53^bb *10^9/L
same,TNF-α,[3]; alveolar lavage fluid (BALF),325.52 ± 49.51^bb pg/mL
same,IL-6,[3]; serum,507.54 ± 185.62^bb pg/mL
same,IL-10,[3]; serum,40.65 ± 6.31 ^ pg/mL
same,CRP,[4],3420.23 ± 1254.10^bb ng/mL
same,SAA,[4],19.18 ± 6.18^bb μg/mL
same,MAN (mean alveolar numbers),[5],330.49 ± 77.29 ↑/mm^2
same,MLI (mean linear intercept),[5],47.24 ± 5.78 μm
same,Wt (bronchial wall thickness),[5],16.6 ± 4.01 µm
